Laboratory results published in patent US4650855A, “Glycopeptide antibiotic L 17046” (Gruppo Lepetit S.p.A., priority 1983, dated 1987).
Values after ≈ are worked out from the molar mass of the structure shown.

What was measured:
[1] = system: Staplylococcus aureus Tour; assay: In vitro antibacterial activity, two-fold dilution method in microtiter system (MIC); assay type: cell-based, Staphylococcus aureus
Procedure: (§1) Isosensitest broth (Oxoid) and Todd-Hewitt broth (Difco) were used for Staphylococci and Streptococci, respectively. Broth cultures were diluted so that the final inoculum was about 10^4 colony forming units/ml (CFU/ml).

[2] = system: Staphylococcus aureus ATCC 6538; assay: as above; assay type: cell-based; conditions: Isosensitest broth, inoculum about 10^4 CFU/ml, 18-24 h at 37° C.
Procedure: as §1

[3] = system: Staphylococcus epidermidis ATCC 12228; assay: as above; assay type: cell-based; conditions: Isosensitest broth, inoculum about 10^4 CFU/ml, 18-24 h at 37° C.
Procedure: as §1

[4] = system: Streptococcus dysgalactiae ATCC 9926; assay: as above; assay type: cell-based; conditions: Todd-Hewitt broth, inoculum about 10^4 CFU/ml, 18-24 h at 37° C.
Procedure: as §1

[5] = system: Streptococcus faecalis ATCC 7080; assay: as above; assay type: cell-based; conditions: Todd-Hewitt broth, inoculum about 10^4 CFU/ml, 18-24 h at 37° C.
Procedure: as §1

[6] = system: Streptococcus pneumoniae UC 41; assay: as above; assay type: cell-based; conditions: Todd-Hewitt broth, inoculum about 10^4 CFU/ml, 18-24 h at 37° C.
Procedure: as §1

[7] = system: Streptococcus pyogenes C 203; assay: as above; assay type: cell-based; conditions: Todd-Hewitt broth, inoculum about 10^4 CFU/ml, 18-24 h at 37° C.
Procedure: as §1

S. epidermidis L 1142 = assay: MIC against clinical isolates of coagulase-negative staphylococci; assay type: cell-based; conditions: clinical isolate, methicillin-resistant strain
Procedure: as §1
(§2) Its MICs […] against some clinical isolates of the above microbial strains are listed below in Table II: […]

S. epidermidis L 1378 = assay: as above; assay type: cell-based; conditions: clinical isolate
Procedure: as §1, §2

S. epidermidis L 785 = assay: as above; assay type: cell-based; conditions: clinical isolate, methicillin-resistant strain
Procedure: as §1, §2

S. epidermidis L 835 = assay: as above; assay type: cell-based; conditions: clinical isolate, methicillin-resistant strain
Procedure: as §1, §2

S. saprophyticus L 1141 = assay: as above; assay type: cell-based; conditions: clinical isolate
Procedure: as §1, §2

gram-positive bacteria = assay: In vitro antibacterial activity, spectrum; assay type: cell-based
Procedure: as §1

[8] = system: coagulase-negative staphylocci (S. epidermidis, S. saprophyticus); assay: Effectiveness against coagulase-negative staphylococci; assay type: cell-based
From the text: as §2

mice = assay: Approximate acute toxicity in mice; assay type: in vivo; conditions: acute toxicity (i.p.), administered by i.m. route as printed
Solubility = assay type: physicochemical
[9] = Potentiometric titration profile; assay type: physicochemical; conditions: methylcellosolve:water 4:1, titration with 0.01 N NaOH after excess 0.01 N HCl

With `CC(=O)N[C@@H]1[C@@H](O[C@H]2c3ccc(c(Cl)c3)Oc3cc4cc(c3O)Oc3ccc(cc3Cl)C[C@@H]3NC(=O)[C@@H](N)c5ccc(O)c(c5)Oc5cc(O)cc(c5)[C@@H](NC3=O)C(=O)N[C@@H]4C(=O)N[C@@H]3C(=O)N[C@H]2C(=O)N[C@@H](C(=O)O)c2cc(O)cc(O)c2-c2cc3ccc2O)O[C@@H](CO)[C@H](O)[C@H]1O` (stereo in doubt) [antibiotic L 17046] the MIC ([1]; Isosensitest broth + 30% bovine serum) was 0.4 µg/mL, the MIC ([1]; Isosensitest broth, inoculum about 10^4 CFU/ml, 18-24 h at 37° C.) was 0.2 µg/mL (≈ 0.143 µM) and the MIC [2] was 0.2 µg/mL (≈ 0.143 µM). For the same compound, the MIC [3] was 0.05 µg/mL (≈ 0.0357 µM), the MIC [4] was 0.8 µg/mL (≈ 0.571 µM) and the MIC [5] was 1.6 µg/mL (≈ 1.14 µM). The MIC [6] was 1.6 µg/mL (≈ 1.14 µM), the MIC [7] was 1.6 µg/mL (≈ 1.14 µM) and the MIC (S. epidermidis L 1142) was 0.1 µg/mL (≈ 0.0713 µM). For the same compound, the MIC (S. epidermidis L 1378) was 0.05 µg/mL (≈ 0.0357 µM), the MIC (S. epidermidis L 785) was 0.05 µg/mL (≈ 0.0357 µM) and the MIC (S. epidermidis L 835) was 0.1 µg/mL (≈ 0.0713 µM). For the same compound, the MIC (S. saprophyticus L 1141) was 0.1 µg/mL (≈ 0.0713 µM), the “in vitro antibacterial activity (spectrum)” value (gram-positive bacteria) was “mainly active against gram-positive bacteria” and the “effectiveness against coagulase-negative staphylococci” value [8] was “particularly effective”. For the same compound, the “approximate LD50” value (mice) was “about 850 mg/kg”, the solubility (Solubility; in highly concentrated mineral acids) was “insoluble” and the solubility (Solubility; in methanol) was “sligltly soluble”. For the same compound, the solubility (Solubility; in water at pH>8.0, dimethylformamide, dimethylsulfoxide, propyleneglycol and methylcellosolve) was “freely soluble”, the “pH1/2 value, third titration slope” value ([9]; five equivalents) was 11 and the “pH1/2 value, first titration slope” value ([9]; one equivalent) was 5.0. For the same compound, the “pH1/2 value, second titration slope” value ([9]; one equivalent) was 7.0.
